The values that follow are results of earlier work, collected in patent publication US20090022794A1, “Topiramate Tablet Formulation” (priority 2005, published 2009).

≈ marks a conversion by molar mass, not a printed value.

For series [1] the following is noted: relative humidity as high as 90%.

`OC[C@@H](O)[C@@H](O)[C@H](O)[C@H](O)CO` [Mannitol]: the moisture picked up entry in series [1] is “less than 1%”.
As for `CC1(C)O[C@@H]2[C@@H](CO[C@@]3(COS(N)(=O)=O)OC(C)(C)O[C@@H]23)O1` [Topiramate, 2,3:4,5-Bis-O-(1-methylethylidene)-β-D-fructopyranose sulfamate], the “solubility in alkaline solutions, acetone, dimethylsulfoxide and ethanol” value (alkaline solutions, acetone, dimethylsulfoxide, ethanol) is on record as “soluble”. Besides, the solubility in water (water) was 9800 µg/mL (≈ 28.9 mM).
